Source: patent EP4722219A1 (Gan & Lee Pharmaceuticals Co., Ltd., priority 2023, dated 2024)

Target: T1, AR protein (Homo sapiens, UniProt P10275)
T1 construct: host or cells: VCaP
T1 sequence (P10275 1-920): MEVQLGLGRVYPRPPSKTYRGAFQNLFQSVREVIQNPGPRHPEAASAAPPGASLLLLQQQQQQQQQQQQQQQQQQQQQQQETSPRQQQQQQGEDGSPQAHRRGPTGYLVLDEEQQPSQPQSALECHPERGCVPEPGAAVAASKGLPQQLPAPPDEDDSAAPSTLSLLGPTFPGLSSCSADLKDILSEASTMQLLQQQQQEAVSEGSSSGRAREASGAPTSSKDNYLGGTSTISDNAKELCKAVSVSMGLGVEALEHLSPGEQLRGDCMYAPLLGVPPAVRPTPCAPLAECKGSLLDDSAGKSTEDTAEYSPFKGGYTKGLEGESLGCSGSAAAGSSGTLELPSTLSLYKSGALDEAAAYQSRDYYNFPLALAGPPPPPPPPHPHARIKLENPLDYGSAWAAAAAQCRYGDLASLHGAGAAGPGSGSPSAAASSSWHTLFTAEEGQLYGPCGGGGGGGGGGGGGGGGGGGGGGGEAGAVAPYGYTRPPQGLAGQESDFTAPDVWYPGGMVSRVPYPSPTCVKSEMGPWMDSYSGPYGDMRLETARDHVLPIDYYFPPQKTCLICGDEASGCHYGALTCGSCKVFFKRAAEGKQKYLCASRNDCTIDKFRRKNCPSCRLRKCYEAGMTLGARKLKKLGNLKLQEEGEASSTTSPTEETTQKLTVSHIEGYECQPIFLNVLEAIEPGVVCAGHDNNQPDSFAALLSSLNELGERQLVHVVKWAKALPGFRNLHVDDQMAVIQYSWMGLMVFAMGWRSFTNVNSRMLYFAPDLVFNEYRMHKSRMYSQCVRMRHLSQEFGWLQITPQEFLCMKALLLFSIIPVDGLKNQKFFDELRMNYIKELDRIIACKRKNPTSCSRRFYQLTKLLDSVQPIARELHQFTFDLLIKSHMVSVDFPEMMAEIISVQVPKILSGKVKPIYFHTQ
Experiment: AR protein degradation in VCaP cells (Western blot)
Assay type: cell-based
Conditions: 8h
Method in brief: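 AR-positive VCaP human prostate cancer cells grown in DMEM with 10% FBS were plated in six-well plates at 3×10^5 cells/well and incubated overnight. Compounds were then added at 1 µL/well alongside a solvent control and incubated for 8h. Lysates in RIPA buffer with protease inhibitor were quantified by BCA and run by SDS-PAGE. AR was detected by Western blot, and degradation was calculated from band grayscale normalized to GAPDH.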

Molecule: COc1cc(O[C@H]2C(C)(C)[C@H](NC(=O)c3ccc(N4CCC(C)(CN5CCC6(CC5)COc5cc7c(cc56)n(C)c(=O)n7C5CCC(=O)NC5=O)CC4)cc3)C2(C)C)ccc1C#N (relative stereo) [A-P-16]
- Degradation rate of AR protein in VCaP cells (0.5 nM): 66%
- Degradation rate of AR protein in VCaP cells (5 nM): 83%

Molecule: (R)-3-((1-(4-(((S)-2-(3-chloro-4-cyanophenyl)-3-methyl-2,8-diazaspiro[4.5]decan-8-yl)phenyl)piperidin-4-yl)methyl)-N-(((S)-2,6-dioxopiperidin-3-yl)-1,2,3,4,4a,5-hexahydrobenzo[b]pyrazi no[1,2-d][1,4]oxazine-8-carboxamide [A-P-58]
- Degradation rate of AR protein in VCaP cells (0.5 nM): 12%
- Degradation rate of AR protein in VCaP cells (5 nM): 37%

Molecule: C[C@H]1CC2(CCN(c3ccc(C(=O)N4CCC(CN5CCN6c7ccc(C(=O)N[C@H]8CCC(=O)NC8=O)cc7OC[C@@H]6C5)CC4)cc3)CC2)CN1c1ccc(C#N)c(Cl)c1 [A-P-69]
- Degradation rate of AR protein in VCaP cells (0.5 nM): -9%
- Degradation rate of AR protein in VCaP cells (5 nM): 18%

Molecule: COc1cc(O[C@H]2CC[C@H](NC(=O)c3ccc(N4CCC(N5CCC6(CC5)COc5cc7c(cc56)n(C)c(=O)n7C5CCC(=O)NC5=O)CC4)nn3)CC2)ccc1C#N (some centres unmarked) [A-P-18, N-((1r,4r)-4-(4-cyano-3-methoxyphenoxy)cyclohexyl)-6-(4-(3-(2,6-dioxopyridyl-3-yl)-1-methyl-2-oxo-2,3-dihydro-1H,6H-spiro[benzofuro[5,6-d]imidazole-7,4'-piperidin]-1'-yl)piperidin-1-yl)pyridazine-3-carboxamide]
- AR protein degradation rate at fixed concentration (%) at 0.0005 µM (0.5 nM): 76%
- AR protein degradation rate at fixed concentration (%) at 0.005 µM (5 nM): 73%

Molecule: (S)-3-((1-(4-(((S)-2-(3-chloro-4-cyanophenyl)-3-methyl-2,8-diazaspiro[4.5]decan-8-yl)phenyl)piperidin-4-yl)methyl)-N-(((S)-2,6-dioxopiperidin-3-yl)-1,2,3,4,4a,5-hexahydrobenzo[b]pyrazi no[1,2-d][1,4]oxazine-8-carboxamide [A-P-57]
- Degradation rate of AR protein in VCaP cells (0.5 nM): -31%
- Degradation rate of AR protein in VCaP cells (5 nM): -21%

Molecule: C[C@H]1CC2(CCN(c3ccc(C(=O)N4CCC(CN5CCC6(CCc7cc(C(=O)N[C@H]8CCC(=O)NC8=O)c(F)cc7O6)CC5)CC4)cc3)CC2)CN1c1ccc(C#N)c(Cl)c1 [A-P-35, 1'-((1-(4-((S)-2-(3-chloro-4-cyanophenyl)-3-methyl-2,8-diazaspiro[4.5]decan-8-yl)benzoyl)piperidin-4-yl)methyl)-N-((S)-2,6-dioxopiperidin-3-yl)-7-fluorospiro[chroman-2,4'-piperidin]-6-carboxamide]
- AR protein degradation rate at fixed concentration (%) at 0.0005 µM (0.5 nM): 9%
- AR protein degradation rate at fixed concentration (%) at 0.005 µM (5 nM): 18%

Molecule: Cn1c(=O)n(C2CCC(=O)NC2=O)c2ccc3c(c21)OCC31CCN(C2CC3(CCN(c4ccc(C(=O)N[C@H]5CC[C@H](Oc6ccc(C#N)c(Cl)c6)CC5)nn4)CC3)C2)CC1 (some centres unmarked) [A-P-25]
- AR protein degradation rate at fixed concentration (%) at 0.0005 µM (0.5 nM): 91%
- AR protein degradation rate at fixed concentration (%) at 0.005 µM (5 nM): 90%

Molecule: N#Cc1ccc(O[C@H]2CC[C@H](NC(=O)c3ccc(N4CCC(N5CC6(CCC7(CC6)COc6c7ccc7c6CN(C6CCC(=O)NC6=O)C7=O)C5)CC4)nn3)CC2)cc1Cl (relative stereo) [A-P-1, N-((1r,4r)-4-(3-chloro-4-cyanophenoxy)cyclohexyl)-6-(4-(7'-(2,6-dioxopiperidin-3-yl)-6'-oxo-7',8'-dihydro-2'-H,6'-H-dihydro[azetidine-3,1'-cyclohexane-4',3"-furo[2,3-e]isoindol]-1-yl)piperidin-1-yl)pyridazine-3-carboxamide]
- Degradation rate of AR protein in VCaP cells (0.5 nM): 69%
- Degradation rate of AR protein in VCaP cells (5 nM): 82%

Molecule: COc1cc(O[C@H]2C(C)(C)[C@H](NC(=O)c3ccc(N4CCC(CN5CCC6(CCc7cc(C(=O)N[C@H]8CCC(=O)NC8=O)c(F)cc7O6)CC5)(OC)CC4)cc3)C2(C)C)ccc1C#N [A-P-36]
- Degradation rate of AR protein in VCaP cells (0.5 nM): 9%
- Degradation rate of AR protein in VCaP cells (5 nM): 45%

Molecule: COc1cc(O[C@H]2CC[C@H](NC(=O)c3ccc(N4CCC(CN5CCC6(CC5)COc5cc7c(cc56)n(C)c(=O)n7C5CCC(=O)NC5=O)CC4)nn3)CC2)ccc1C#N (relative stereo) [A-P-17]
- Degradation rate of AR protein in VCaP cells (0.5 nM): 81%
- Degradation rate of AR protein in VCaP cells (5 nM): 75%

Molecule: COc1cc(O[C@H]2C(C)(C)[C@H](NC(=O)c3ccc(N4CCC(C)(CN5CC6(CCC7(CC6)COc6c7ccc7c6CN(C6CCC(=O)NC6=O)C7=O)C5)CC4)cc3)C2(C)C)ccc1C#N (relative stereo) [A-P-4]
- Degradation rate of AR protein in VCaP cells (0.5 nM): 50%
- Degradation rate of AR protein in VCaP cells (5 nM): 78%

Molecule: N-(1r,4r)-4-(3-chloro-4-cyanophenoxy)cyclohexy 1)-6-(4-(7-(2,6-dioxopiperidin-3-yl))-6-oxo-7,8-dihydro-2H,6H-dipyrido[2,3-e]isoindole-3,1'-cyclohexane-4',4‴-piperidin]-1"-yl)pyridazine-3-carboxamide [A-P-32]
- Degradation rate of AR protein in VCaP cells (0.5 nM): 14%
- Degradation rate of AR protein in VCaP cells (5 nM): 59%

Molecule: COc1cc(O[C@H]2C(C)(C)[C@H](NC(=O)c3ccc(N4CCC(CN5CCN(c6ccc(C(=O)N[C@H]7CCC(=O)NC7=O)c(F)c6)CC5)CC4)cc3)C2(C)C)ccc1C#N [ARV-766, reference compound]
- Degradation rate of AR protein in VCaP cells (0.5 nM): 9%
- Degradation rate of AR protein in VCaP cells (5 nM): 80%

Molecule: Cn1c(=O)n(C2CCC(=O)NC2=O)c2cc3c(cc21)C1(CCN(CC2CCN(c4ccc(C(=O)N[C@H]5CC[C@H](Oc6ccc(C#N)c(Cl)c6)CC5)nn4)CC2)CC1)CO3 (some centres unmarked) [A-P-10]
- AR protein degradation rate at fixed concentration (%) at 0.0005 µM (0.5 nM): 75%
- AR protein degradation rate at fixed concentration (%) at 0.005 µM (5 nM): 78%

Molecule: COc1cc(O[C@H]2C(C)(C)[C@H](NC(=O)c3ccc(N4CCC5(CC4)CC(N4CCC6(CC4)COc4cc7c(cc46)n(C)c(=O)n7C4CCC(=O)NC4=O)C5)nn3)C2(C)C)ccc1C#N (relative stereo) [A-P-14, N-((1r,3r)-3-(4-cyano-3-methoxyphenoxy)-2,2,4,4-tetramethylcyclobutyl)-6-(2-(3-(2,6-dioxopiperidin-3-yl)-1-methyl-2-oxo-2,3-dihydro-1H,6H-spiro[benzofuro[5,6-d]imidazole-7,4'-piperidin]-1'-yl)-7-azaspiro[3.5]nonan-7-yl)pyridazine-3-carboxamide]
- Degradation rate of AR protein in VCaP cells (0.5 nM): 63%
- Degradation rate of AR protein in VCaP cells (5 nM): 82%

Molecule: COc1cc(O[C@H]2CC[C@H](NC(=O)c3ccc(N4CCC(CN5CCC6(CC5)COc5c6ccc6c5n(C)c(=O)n6C5CCC(=O)NC5=O)CC4)nn3)CC2)ccc1C#N (some centres unmarked) [A-P-22]
- AR protein degradation rate at fixed concentration (%) at 0.0005 µM (0.5 nM): 84%
- AR protein degradation rate at fixed concentration (%) at 0.005 µM (5 nM): 69%

Molecule: Cn1c(=O)n(C2CCC(=O)NC2=O)c2ccc3c(c21)OCC31CCN(C2CCN(c3ccc(C(=O)N[C@H]4CC[C@H](Oc5ccc(C#N)c(Cl)c5)CC4)nn3)CC2)CC1 (some centres unmarked) [A-P-23]
- AR protein degradation rate at fixed concentration (%) at 0.0005 µM (0.5 nM): 85%
- AR protein degradation rate at fixed concentration (%) at 0.005 µM (5 nM): 74%

Molecule: COc1cc(O[C@H]2C(C)(C)[C@H](NC(=O)c3ccc(N4CCC(F)(CN5CCC6(CC5)COc5cc7c(cc56)n(C)c(=O)n7C5CCC(=O)NC5=O)CC4)cc3)C2(C)C)ccc1C#N (some centres unmarked) [A-P-13]
- AR protein degradation rate at fixed concentration (%) at 0.0005 µM (0.5 nM): 44%
- AR protein degradation rate at fixed concentration (%) at 0.005 µM (5 nM): 77%

Molecule: COc1cc(O[C@H]2C(C)(C)[C@H](NC(=O)c3ccc(N4CCC(C)(CN5CCC6(CCc7cc(C(=O)N[C@H]8CCC(=O)NC8=O)c(F)cc7O6)CC5)CC4)cc3)C2(C)C)ccc1C#N [A-P-31, 1'-((1-((4-((1r,3r)-3-(4-cyano-3-methoxyphenoxy)-2,2,4,4-tetramethylcyclobutyl)carbamoyl)phenyl)-4-methylpiperidin-4-yl)methyl)-N-((S)-2,6-dioxopiperidin-3-yl)-7-fluorospiro[2,4'-piperidin]-6-carboxamide]
- AR protein degradation rate at fixed concentration (%) at 0.0005 µM (0.5 nM): -13%
- AR protein degradation rate at fixed concentration (%) at 0.005 µM (5 nM): 41%
